Laboratory results published in article PMC4575187 (PLoS ONE, 2015).
Values after ≈ are worked out from the molar mass of the structure shown. Ends that are not written are not given here.

Tests used:
[1] = tested on: influenza A/Aichi/2/68 (H3N2); experiment: microbe, parasite or virus in culture; settings: H3N2, MDCK, read-out: H3N2 IC50
[2] = tested on: influenza A/Aichi/2/68 (H3N2); settings: /Aichi/2/68, 48 h
MDCK cells [3] = settings: 4 h
H5 antigen = experiment: Hemagglutination inhibition (HI) assay; settings: HA-FP-1 at 50 μg/mL, chicken erythrocytes 0.5% v/v, 1 h at room temperature
H5N1 pseudovirus = type: cell-based, influenza A virus
MDCK cells [4] = settings: previous work; cited from earlier work
[5] = tested on: H5N1 pseudovirus (HA and NA of A/Thailand/Kan353/2004)

| Compound | H3N2 IC50 [2] [µg/mL] | CC50 with serum (MDCK cells [3]) [µg/mL] | CC50 without serum (MDCK cells [3]) [µg/mL] | further results |
| --- | --- | --- | --- | --- |
| NC(=O)c1ncn([C@@H]2O[C@H](CO)[C@@H](O)[C@H]2O)n1 [Ribavirin] | – | – | – | IC50 [1]: 0.63 µg/mL (≈ 2.58 µM) |
| GLFGAIAGFIKGGWPGLVKG-NH2 [HA-FP-3] | 34.91 ± 4.21 | – | – | – |
| GLFGAIAGFIKKGWPGLVKG-NH2 [HA-FP-3-1] | 27.57 ± 0.43 | 209.35 ± 0.21 | 174.53 ± 1.90 | – |
| GLFGAIAGFIKNGWKGMIKG-NH2 [HA-FP-1] | 5.90 ± 0.62 | 143.65 ± 0.63 | 111.70 ± 0.40 | inhibition of agglutination of red blood cells (H5 antigen): unable to inhibit; antiviral activity of HA-FP-1 in presence of HA-FP-O (H5N1 pseudovirus): completely abolished; CC50 against MDCK (MDCK cells [4]): 144.4 µg/mL; IC50, infection of H5N1 influenza A pseudovirus on MDCK cells ([5]; pseudovirus (HA and NA of A/Thailand/Kan353/2004, 48 h)): 7.05 µg/mL |
| HA-FP-O: indigenous negatively charged fusion peptide of H3 hemagglutinin HA2, 20 residues (GLFGAIAGFIENGWEGMIDG) | – | – | – | inhibition of H5N1 pseudovirus infection (in words) [5]: a lower or no inhibition |
